Data from ChEMBL document CHEMBL1156622, “1,3,4-Oxadiazole-3(2H)-carboxamide derivatives as potential novel class of monoamine oxidase (MAO) inhibitors: synthesis, evaluation, and role of urea moiety” (Bioorg Med Chem, 2008).

Assays:
Rattus norvegicus [1] = species: Rattus norvegicus; assay: Inhibition of Monoamine oxidase in rat brain mitochondria at 0.01 mM by kynuramine fluorimetric assay
Rattus norvegicus [2] = species: Rattus norvegicus; assay: Inhibition of Monoamine oxidase in rat brain mitochondria at 0.1 mM by kynuramine fluorimetric assay
Rattus norvegicus [3] = species: Rattus norvegicus; assay: Inhibition of Monoamine oxidase in rat brain mitochondria at 1 mM by kynuramine fluorimetric assay
Rattus norvegicus [4] = species: Rattus norvegicus; assay: Inhibition of Monoamine oxidase in rat brain mitochondria at 0.08 mM by kynuramine fluorimetric assay
Rattus norvegicus [5] = species: Rattus norvegicus; assay: Inhibition of Monoamine oxidase in rat brain mitochondria at 0.8 mM by kynuramine fluorimetric assay
Rattus norvegicus [6] = species: Rattus norvegicus; assay: Inhibition of Monoamine oxidase in rat brain mitochondria at 0.008 mM by kynuramine fluorimetric assay

Row | inhibition (Rattus norvegicus [1]) | inhibition (Rattus norvegicus [2]) | inhibition (Rattus norvegicus [3]) | inhibition (Rattus norvegicus [4]) | inhibition (Rattus norvegicus [5]) | inhibition (Rattus norvegicus [6]) | Structure (SMILES)
1 | 0% | 21.7% | 69.2% |  |  |  | CCCCC1(CCCC)OC(c2cc(OC)c(OC)c(OC)c2)=NN1C(=O)NC(=O)c1c(F)cccc1F
2 |  |  |  | 0% | 0% | 0% | CCCCC1(CCCC)OC(c2cc(OC)c(OC)c(OC)c2)=NN1C(C)=O
3 | 5.86% | 24.9% | 78% |  |  |  | CCCCC1(CCCC)OC(c2ccc(Cl)cc2Cl)=NN1C(=O)NC(=O)c1ccccc1Cl
4 | 0% | 6.03% | 58.8% |  |  |  | CCCCC1(CCCC)OC(c2ccc(Cl)cc2)=NN1C(=O)NC(=O)c1c(F)cccc1F
5 | 5.85% | 26.2% | 69.2% |  |  |  | CCCCC1(CCCC)OC(c2cc(C)cc(C)c2)=NN1C(=O)NC(=O)c1c(F)cccc1F
6 | 5.43% | 25.1% | 72.5% |  |  |  | CCCCC1(CCCC)OC(c2ccc(Cl)cc2Cl)=NN1C(=O)NC(=O)c1c(F)cccc1F
7 |  |  |  | 17.7% | 42.8% | 2.89% | CCCCC1(CCCC)OC(c2cc(C)cc(C)c2)=NN1C(C)=O
8 | 1.84% | 23.7% | 75.1% |  |  |  | CCCCC1(CCCC)OC(c2ccco2)=NN1C(=O)NC(=O)c1c(F)cccc1F
9 | 4.12% | 24.6% | 72.8% |  |  |  | CCCCC1(CCCC)OC(c2cc(C)cc(C)c2)=NN1C(=O)NC(=O)c1ccccc1Cl
10 | 2.92% | 25.9% | 81.8% |  |  |  | CCCCC1(CCCC)OC(c2ccc(Cl)cc2Cl)=NN1C(=O)NC(=O)c1cc(F)c(OC)c(F)c1F
11 | 6.73% | 27.5% | 75.4% |  |  |  | CCCCC1(CCCC)OC(c2ccc3c(c2)OCO3)=NN1C(=O)NC(=O)c1ccccc1Cl
12 | 8.37% | 41% | 78.4% |  |  |  | CCCCC1(CCCC)OC(c2ccc3c(c2)OCO3)=NN1C(=O)NC(=O)c1c(F)cccc1F
13 |  |  |  | 0% | 0% | 1.21% | CCCCC1(CCCC)OC(c2ccc3c(c2)OCO3)=NN1C(C)=O
